Where two headings read alike, the source gives them in different places. Where only a bound is given, the exact number is not on record here.

Assay [1] concerns the target T1, p75^NTR receptors (PC12 cells) (Rattus norvegicus, UniProt P07174).
T1 construct: endogenous in cells; host or cells: PC12 cells
T1 sequence (P07174 30-425): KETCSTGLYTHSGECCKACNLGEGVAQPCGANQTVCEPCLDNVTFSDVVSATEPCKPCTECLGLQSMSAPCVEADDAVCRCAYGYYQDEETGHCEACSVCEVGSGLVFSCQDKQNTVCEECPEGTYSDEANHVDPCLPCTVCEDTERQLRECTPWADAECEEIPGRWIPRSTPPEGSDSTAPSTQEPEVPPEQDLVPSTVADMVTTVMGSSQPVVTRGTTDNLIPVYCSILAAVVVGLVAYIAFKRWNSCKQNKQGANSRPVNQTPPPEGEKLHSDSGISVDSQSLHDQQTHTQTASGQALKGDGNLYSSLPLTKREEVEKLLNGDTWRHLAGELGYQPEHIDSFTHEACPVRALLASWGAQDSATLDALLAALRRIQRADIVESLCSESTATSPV
T1 sequence (P23560 129-247 partner): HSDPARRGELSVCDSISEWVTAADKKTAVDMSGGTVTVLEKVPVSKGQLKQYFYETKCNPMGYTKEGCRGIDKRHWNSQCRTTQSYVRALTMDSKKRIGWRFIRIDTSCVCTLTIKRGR
The experiment in a line: Basic screening assay: binding of 125I-BDNF to PC12 cells. The conditions noted are these: for activity at 50 µM: read-out: BDNF Activity % Maximal Binding. The essentials:
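4×10^6 PC12 cells incubated 2 h at 4° C, rotating, with 0.5 nM ^125I-BDNF (final) and compound at 50 μM, in duplicate or more. Bound ligand separated through 10% glycerol by centrifugation and counted by gamma counter; specific binding is Bmax minus NSB; inhibitors followed up for EC50.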

The subject of assay [2] is p75^NTR receptors (PC12 cells). Kind of assay: Basic screening assay: binding of 125I-NGF to PC12 cells. The settings on record: for NGF Activity % Maximal Binding: test compound 50 μM, 0.5 nM 125I-NGF, PC12 cells, 2 h at 4° C., specific binding as percent of control. Summed up: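 PC12 cells (4×10^6) incubated 2 h at 4° C with 0.5 nM 125I-NGF and test compound at 50 μM, rotating. Bound tracer pelleted through 10% glycerol and gamma-counted; specific binding expressed as percent of control after NSB subtraction.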

In assay [3] the test system is p75. Kind of assay: Neurotrophin-receptor crosslinking assay, 125I-NGF (Example 3). In kind it is binding. How it is done:
(§1) PC12 cells or TrkB-expressing PC12^nnr5 cells were recovered using Gey's solution, pelleted by centrifugation, and suspended in HKR (HEPES-Krebs Ringer Solution; [10 mM HEPES, 125 mM NaCl, 4.8 mM KCl, 1.3 mM CaCl2.2H2O, 1.2 mM MgSO4, 1.2 mM KH2PO4, 1 mg/mL BSA, 1 mg/mL glucose, pH 7.35]). In a total volume of 1 mL, 1×10^6 cells were incubated, rotating, with 0.1 nM ^125I-BDNF or ^125I-NGF and additions (Compound A or Compound B at the indicated final concentrations) for 2 h at 4° C. At the conclusion of the binding reaction, a 20 μL volume of BS^3 was added to a final concentration of 0.4 mM and incubated, rocking, for an additional 30 min at room temperature. Cells were washed twice in TBS. For analysis of ^125I-NGF crosslinking to TrkA, ^125I-NGF crosslinking to p75^NTR, and ^125I-BDNF crosslinking to p75^NTR, samples were solubilized directly in SDS sample buffer and heated for 10 min at 95° C. For analysis of ^125I-BDNF crosslinking to TrkB, samples were immunoprecipitated with a pan-Trk antibody. All samples were electrophoresed on a 6% SDS-polyacrylamide gel, dried, and autoradiographed. Dried gels were registered to the autoradiograph and each labeled protein band was quantified by direct gamma counting. Non-linear regression analysis was performed by Prism 3.0 to generate concentration-effect curves and determine IC50 values.
(§2) The neurotrophin-receptor crosslinking assay described in Example 1 was used to determine binding of compounds 65, 3, 43 and 97 to ^125I-NGF and ^125I-BDNF.
(§3) ^1The p75 band was excised from the gel and cpm were determined on a gamma counter. Values were calculated as follows: [formula]
(§4) ^2An aliquot of the total crosslinked sample in SDS-sample buffer was counted on a gamma counter. Values were calculated as follows: [formula]

Assay [4] deals with p75. The experiment in a line: Neurotrophin-receptor crosslinking assay, 125I-BDNF (Example 3). In kind it is binding. How it is done:
as §1, §2, §3, §4

[5] abbreviates: crosslinked sample counted on gamma counter.
The mark [6] stands for this setting: p75 band counted on gamma counter.
[7] abbreviates: Table 1, test compound 50 μM, 0.5 nM 125I-BDNF, PC12 cells, 2 h at 4° C., specific binding as percent of control.
Where [8] appears, read: Table 4, test compound 50 μM, 0.5 nM 125I-BDNF, PC12 cells, 2 h at 4° C., specific binding as percent of control.

For `O=C1NC(=S)NC(=O)C1=Cc1ccc(-c2ccc(C(=O)O)c(Cl)c2)o1` [Compound 65, 2-Chloro-4-[5-(4,6-dioxo-2-thioxo-tetrahydro-pyrimidin-5-ylidenemethyl)furan-2-yl]benzoic acid], in assay [1] (Example 3 table), the “125I-BDNF Binding (% binding)” value is listed as “XXXXX (0 < XXXXX < 10)”. For the same compound, in assay [1], the activity at 50 µM lay in the range of 0 to 10%. For the same compound, the “125I-NGF Binding (% binding)” value in assay [2] (Example 3 table) is “XXX (20 < XXX < 30)”. In assay [2] (Table 2), the “NGF Activity % Maximal Binding” value is recorded as “XXX (20 < XXX < 30)”. Further, in assay [3] (setting [5]), the “125I-NGF X-linking Sample (% binding)” value is recorded as “* (50 < *)”. Further, the “125I-NGF X-linking p75 band (% binding)” value in assay [3] (setting [6]) is “* (50 < *)”. Also, the “125I-BDNF X-linking Sample (% binding)” value in assay [4] (setting [5]) was “XXXXX (0 < XXXXX < 10)”. Also, the “125I-BDNF X-linking p75 band (% binding)” value in assay [4] (setting [6]) is recorded as “XXXXX (0 < XXXXX < 10)”.

As for `Cc1ccc([N+](=O)[O-])cc1-c1ccc(/C=C2/SC(=S)NC2=O)o1` [Compound 2, 5-[5-(2-Methyl-5-nitrophenyl)furan-2-ylmethylene]-2-thioxo-thiazolidin-4-one], in assay [1] (setting [7]), the activity at 50 µM lay in the range of 0 to 10%. Moreover, the “NGF Activity % Maximal Binding” value in assay [2] (Table 1) was “* (50 < *)”.

For the compound `Cc1cc(C(=O)O)ccc1-c1ccc(/C=C2\C(=O)NC(=O)N(c3ccccc3F)C2=O)o1` [Compound 66, 4-{5-[1-(2-Fluorophenyl)-2,4,6-trioxo-tetrahydro-pyrimidin-5-ylidenemethyl]furan-2-yl}-3-methylbenzoic acid], the activity at 50 µM in assay [1] lay in the range of 0 to 10%. Besides, the “NGF Activity % Maximal Binding” value in assay [2] (Table 2) is reported as “XXX (20 < XXX < 30)”.

On to `O=C1NC(=S)S/C1=C/c1ccc(-c2ccc(Cl)c([N+](=O)[O-])c2)o1` [Compound 51, 5-[5-(4-Chloro-3-nitrophenyl)furan-2-ylmethylene]-2-thioxo-thiazolidin-4-one], for which, in assay [1] (setting [7]), the activity at 50 µM lay within 30 to 40%. In addition, the “NGF Activity % Maximal Binding” value in assay [2] (Table 1) is given as “* (50 < *)”.

With `COC(=O)CN1C(=O)S/C(=C\c2ccc(-c3ccc([N+](=O)[O-])cc3)o2)C1=O` [Compound 50, {5-[5-(4-Nitrophenyl)furan-2-ylmethylene]-2,4-dioxo-thiazolidin-3-yl}-acetic acid methyl ester], the activity at 50 µM in assay [1] (setting [7]) was in the range of 30 to 40%. Moreover, the “NGF Activity % Maximal Binding” value in assay [2] (Table 1) is listed as “* (50 < *)”.

As to `O=C(O)CN1C(=O)C(=Cc2ccc(-c3ccc([N+](=O)[O-])cc3)o2)SC1=S` [Compound 38, {5-[5-(4-Nitrophenyl)furan-2-ylmethylene]-4-oxo-2-thioxo-thiazolidin-3-yl}-acetic acid], the activity at 50 µM in assay [1] (setting [7]) lay within 20 to 30%. For the same compound, the “NGF Activity % Maximal Binding” value in assay [2] (Table 1) is listed as “* (50 < *)”.

On to `O=C(O)c1ccc(Cl)c(-c2ccc(/C=C3/NC(=O)N(Cc4ccc(F)cc4)C3=O)o2)c1` [Compound 13, 4-Chloro-3-{5-[1-(4-fluorobenzyl)-2,5-dioxo-imidazolidin-4-ylidenemethyl]furan-2-yl}benzoic acid], for which the activity at 50 µM in assay [1] (setting [7]) lay within 0 to 10%. Also, the “NGF Activity % Maximal Binding” value in assay [2] (Table 1) was “* (50 < *)”.

With `O=C1NC(=Cc2ccc(-c3ccc(Cl)c([N+](=O)[O-])c3)o2)C(=O)N1c1ccccc1` [Compound 127, 5-[5-(4-Chloro-3-nitrophenyl)furan-2-ylmethylene]-3-phenyl-imidazolidine-2,4-dione], the activity at 50 µM in assay [1] (setting [8]) is greater than 50%. In addition, the “NGF Activity % Maximal Binding” value in assay [2] (Table 4) is “* (50 < *)”.

Turning to `Cc1cccc(N2NC(=O)C(=Cc3ccc(-c4ccc(S(N)(=O)=O)cc4)o3)C2=O)c1` [Compound 9, 4-[5-(3,5-Dioxo-1-m-tolyl-pyrazolidin-4-ylidenemethyl)furan-2-yl]benzenesulfonamide], the activity at 50 µM in assay [1] (setting [7]) fell in the range of 0 to 10%. The “NGF Activity % Maximal Binding” value in assay [2] (Table 1) is recorded as “* (50 < *)”.

Turning to `CSC1=NC(=Cc2ccc(-c3ccc([N+](=O)[O-])cc3)o2)C(=O)S1` [Compound 111, 2-Methylsulfanyl-4-[5-(4-nitrophenyl)furan-2-ylmethylene]-4H-thiazol-5-one], the activity at 50 µM in assay [1] (setting [8]) is greater than 50%. The “NGF Activity % Maximal Binding” value in assay [2] (Table 4) is “* (50 < *)”.

In the case of `COc1cc([N+](=O)[O-])ccc1-c1ccc(C=C2C(=O)NN(c3cccc(C)c3)C2=O)o1` [Compound 138, 4-[5-(2-Methoxy-4-nitrophenyl)furan-2-ylmethylene]-1-m-tolyl-pyrazolidine-3,5-dione], the activity at 50 µM in assay [1] (setting [8]) was greater than 50%. The “NGF Activity % Maximal Binding” value in assay [2] (Table 4) is “* (50 < *)”.

Consider `O=C1NC(=S)NC(=O)C1=Cc1ccc(-c2ccc(C(=O)O)cc2)o1` [Compound 6, 4-[5-(4,6-Dioxo-2-thioxo-tetrahydro-pyrimidin-5-ylidenemethyl)furan-2-yl]benzoic acid], for which the activity at 50 µM in assay [1] fell in the range of 0 to 10%. Also, the “NGF Activity % Maximal Binding” value in assay [2] (Table 1) was “* (50 < *)”.

In the case of `Cc1cc(-c2ccc(C=C3C(=O)NC(=S)NC3=O)o2)cc([N+](=O)[O-])c1C` [Compound 25, 5-[5-(3,4-Dimethyl-5-nitrophenyl)furan-2-ylmethylene]-2-thioxo-dihydro-pyrimidine-4,6-dione], in assay [1], the activity at 50 µM fell in the range of 0 to 10%. Further, the “NGF Activity % Maximal Binding” value in assay [2] (Table 1) is recorded as “* (50 < *)”.

On to `CCN1C(=O)S/C(=C/c2ccc(-c3ccc([N+](=O)[O-])cc3OC)o2)C1=O` [Compound 58, 3-Ethyl-5-[5-(2-methoxy-4-nitrophenyl)furan-2-ylmethylene]-thiazolidine-2,4-dione], for which, in assay [1] (setting [7]), the activity at 50 µM lay in the range of 40 to 50%. Further, the “NGF Activity % Maximal Binding” value in assay [2] (Table 1) is “* (50 < *)”.

Take `O=C(O)c1ccc(-c2ccc(/C=C3/NC(=O)N(Cc4ccccc4F)C3=O)o2)cc1` [Compound 136, 4-{5-[1-(2-Fluorobenzyl)-2,5-dioxo-imidazolidin-4-ylidenemethyl]furan-2-yl}benzoic acid]: in assay [1] (setting [8]), the activity at 50 µM was greater than 50%. Moreover, the “NGF Activity % Maximal Binding” value in assay [2] (Table 4) was “* (50 < *)”.

As to `CSC1=NC(=Cc2ccc(-c3cccc([N+](=O)[O-])c3)o2)C(=O)S1` [Compound 112, 2-Methylsulfanyl-4-[5-(3-nitrophenyl)furan-2-ylmethylene]-4H-thiazol-5-one], the activity at 50 µM in assay [1] (setting [8]) was greater than 50%. For the same compound, the “NGF Activity % Maximal Binding” value in assay [2] (Table 4) is on record as “* (50 < *)”.

For `Cc1ccc(-c2ccc(C=C3C(=O)NC(=S)NC3=O)o2)cc1[N+](=O)[O-]` [Compound 106, 5-[5-(4-Methyl-3-nitrophenyl)furan-2-ylmethylene]-2-thioxo-dihydro-pyrimidine-4,6-dione], the activity at 50 µM in assay [1] was greater than 50%. For the same compound, the “NGF Activity % Maximal Binding” value in assay [2] (Table 4) is reported as “* (50 < *)”.

`CC1=NN(c2ccc(F)cc2)C(=O)/C1=C\c1ccc(-c2ccc(C(=O)O)cc2)o1` [Compound 49, 4-{5-[1-(4-Fluorophenyl)-3-methyl-5-oxo-1,5-dihydro-pyrazol-4-ylidenemethyl]furan-2-yl}benzoic acid]: in assay [1] (setting [7]), the activity at 50 µM was in the range of 30 to 40%. Moreover, the “NGF Activity % Maximal Binding” value in assay [2] (Table 1) was “* (50 < *)”.

For the compound `COC(=O)c1cccc(-c2ccc(/C=C3/NC(=O)N(Cc4ccccc4F)C3=O)o2)c1C` [Compound 139, 3-{5-[1-(2-Fluorobenzyl)-2,5-dioxo-imidazolidin-4-ylidenemethyl]furan-2-yl}-2-methylbenzoic acid methyl ester], in assay [1] (setting [8]), the activity at 50 µM is greater than 50%. Further, the “NGF Activity % Maximal Binding” value in assay [2] (Table 4) was “* (50 < *)”.

For the origin of these results see patent US20050282840A1, “Methods of modulating neurotrophin-mediated activity” (PainCeptor Pharma Corporation, priority 2004, published 2005).
